Data taken from patent US20130190289A1, “COMPOUNDS AND METHODS FOR THE TREATMENT OR PREVENTION OF FLAVIVIRUS INFECTIONS” (priority 2010, published 2013).
Like-named read-outs stand apart in the source and are kept apart here.

Tests used:
[1] = [3H]Thymidine incorporation assay (cell toxicity); settings: human
[2] = system: HCV replicon (genotype 1b) in Huh7 cell line ET; assay: microbe, parasite or virus in culture; format: cell-based, HCV genotype 1b; settings: Hepatitis C virus
[3] = Huh-7, 96 h, read-out: HCV-Replicon (Luci-ET)-1b_IC50
[4] = Huh-7, read-out: HCV-Replicon-(Luci-ET) 1b_IC50

Structure (SMILES) | CC50 at 72 h [1] | IC50 [2, 3] | IC50 [2, 4]
CC[C@@H](C(=O)N1CCOCC1)N(c1cc(-c2ccccc2)sc1C(=O)O)C(=O)[C@H]1CC[C@H](C)CC1 [Compound 126, 3-[(trans-4-methylcyclohexanecarbonyl)-[(1S)-1-(morpholine-4-carbonyl)propyl]amino]-5-phenyl-thiophene-2-carboxylic acid] | > 100 µM | 0.1 to 1 µM | –
CC(C)(C)C#Cc1cc(N(CC(=O)N2CCSCC2)C(=O)[C@H]2CC[C@H](C)CC2)c(C(=O)O)s1 [Compound 127, 5-(3,3-dimethylbut-1-ynyl)-3-[(trans-4-methylcyclohexanecarbonyl)-(2-oxo-2-thiomorpholino-ethyl)amino]thiophene-2-carboxylic acid] | 10 to 100 µM | < 0.1 µM | –
CC(C)C#Cc1cc(N(CC(=O)N(C)C)C(=O)C2CCC(C)CC2)c(C(=O)O)s1 (centres unmarked) [Compound 67] | > 100 µM | – | < 0.1 µM
CO[C@@H](C)[C@@H](C(=O)N(C)C)N(c1cc(C#CC(C)(C)C)sc1C(=O)O)C(=O)[C@H]1CC[C@H](C)CC1 [Compound 66, 5-(3,3-Dimethylbut-1-ynyl)-3-[[(1S,2S)-1-(dimethylcarbamoyl)-2-methoxy-propyl]-(trans-4-methylcyclohexanecarbonyl)amino]thiophene-2-carboxylic acid] | > 100 µM | – | < 0.1 µM
COCCN(C)C(=O)C[C@H](C)N(c1cc(C#CC(C)(C)C)sc1C(=O)O)C(=O)[C@H]1CC[C@H](C)CC1 [Compound 114, 5-(3,3-Dimethylbut-1-ynyl)-3-[[(1S)-3-[2-methoxyethyl(methyl)amino]-1-methyl-3-oxo-propyl]-(trans-4-methylcyclohexanecarbonyl)amino]thiophene-2-carboxylic acid] | > 100 µM | – | < 0.1 µM
COC[C@@H](C(=O)N1CCOCC1)N(C(=O)C1CCCCC1)c1cc(C#CC(C)(C)C)sc1C(=O)O [Compound 24, 3-[Cyclohexanecarbonyl-[(1S)-1-(methoxymethyl)-2-morpholino-2-oxo-ethyl]amino]-5-(3,3-dimethylbut-1-ynyl)thiophene-2-carboxylic acid] | > 100 µM | – | < 0.1 µM
CC(C)[C@@H](C(=O)N(C)C)N(c1cc(C#CC(C)(C)C)sc1C(=O)O)C(=O)[C@H]1CC[C@H](C)CC1 [Compound 86, 5-(3,3-Dimethylbut-1-ynyl)-3-[[(1S)-1-(dimethylcarbamoyl)-2-methyl-propyl]-(trans-4-methylcyclohexanecarbonyl)amino]thiophene-2-carboxylic acid] | 10 to 100 µM | – | < 0.1 µM
CC1COCCN1C(=O)[C@H](C)N(c1cc(C#CC(C)(C)C)sc1C(=O)O)C(=O)[C@H]1CC[C@H](C)CC1 (stereo partly drawn) [Compound 47, 5-(3,3-dimethylbut-1-ynyl)-3-[(trans-4-methylcyclohexanecarbonyl)-[(1S)-1-methyl-2-(3-methylmorpholin-4-yl)-2-oxo-ethyl]amino]thiophene-2-carboxylic acid] | > 100 µM | – | < 0.1 µM
C[C@@H](O)[C@@H](C(=O)N1CCOCC1)N(c1cc(C#CC(C)(C)C)sc1C(=O)O)C(=O)[C@H]1CC[C@H](C)CC1 [Compound 60, 5-(3,3-Dimethylbut-1-ynyl)-3-[[(1S,2R)-2-hydroxy-1-(morpholine-4-carbonyl)propyl]-(trans-4-methylcyclohexanecarbonyl)amino]thiophene-2-carboxylic acid] | > 100 µM | – | < 0.1 µM
CCOC[C@@H](C(=O)N(C)C)N(c1cc(C#CC(C)(C)C)sc1C(=O)O)C(=O)[C@H]1CC[C@H](C)CC1 [Compound 88, 3-[[(1S)-2-(Dimethylamino)-1-(ethoxymethyl)-2-oxo-ethyl]-(trans-4-methylcyclohexanecarbonyl)amino]-5-(3,3-dimethylbut-1-ynyl)thiophene-2-carboxylic acid] | > 100 µM | – | < 0.1 µM
C[C@@H](O)[C@@H](C(=O)N(C)C)N(c1cc(C#CC(C)(C)C)sc1C(=O)O)C(=O)[C@H]1CC[C@H](C)CC1 [Compound 59] | > 100 µM | – | < 0.1 µM
C[C@@H](C(=O)NC1CCC(O)CC1)N(c1cc(C#CC(C)(C)C)sc1C(=O)O)C(=O)[C@H]1CC[C@H](C)CC1 (stereo partly drawn) [Compound 31, 5-(3,3-Dimethylbut-1-ynyl)-3-[[(1S)-2-[(4-hydroxycyclohexyl)amino]-1-methyl-2-oxo-ethyl]-(trans-4-methylcyclohexanecarbonyl)amino]thiophene-2-carboxylic acid] | > 100 µM | – | < 0.1 µM
C[C@@H](C(=O)N1CCCC1)N(c1cc(C#CC(C)(C)C)sc1C(=O)O)C(=O)[C@H]1CC[C@H](C)CC1 [Compound 9, 5-(3,3-Dimethylbut-1-ynyl)-3-[(trans-4-methylcyclohexanecarbonyl)-[(1S)-1-methyl-2-oxo-2-pyrrolidin-1-yl-ethyl]amino]thiophene-2-carboxylic acid] | > 100 µM | – | < 0.1 µM
C[C@H](C(=O)N(C)C)N(c1cc(C#CC(C)(C)C)sc1C(=O)O)C(=O)[C@H]1CC[C@H](C)CC1 [Compound 2, 5-(3,3-Dimethyl-but-1-ynyl)-3-[((R)-1-dimethylcarbamoyl-ethyl)-(trans-4-methyl-cyclohexanecarbonyl)-amino]-thiophene-2-carboxylic acid] | 10 to 100 µM | – | < 0.1 µM
CN1CC(N(c2cc(C#CC(C)(C)C)sc2C(=O)O)C(=O)[C@H]2CC[C@H](C)CC2)CC1=O (relative stereo) [Compound 107, 5-(3,3-Dimethylbut-1-ynyl)-3-[(trans-4-methylcyclohexanecarbonyl)-(1-methyl-5-oxo-pyrrolidin-3-yl)amino]thiophene-2-carboxylic acid] | > 100 µM | – | < 0.1 µM
CO[C@H](C)[C@H](C(=O)N1CCOCC1)N(c1cc(C#CC(C)(C)C)sc1C(=O)O)C(=O)[C@H]1CC[C@H](C)CC1 [Compound 74, 5-(3,3-dimethylbut-1-ynyl)-3-[[(1R,2R)-2-methoxy-1-(morpholine-4-carbonyl)propyl]-(trans-4-methylcyclohexanecarbonyl)amino]thiophene-2-carboxylic acid] | > 100 µM | – | < 0.1 µM
CN(C)C(=O)[C@H](CO)N(c1cc(C#CC(C)(C)C)sc1C(=O)O)C(=O)[C@H]1CC[C@H](C)CC1 [Compound 34, 3-[[(1S)-2-(dimethylamino)-1-(hydroxymethyl)-2-oxo-ethyl]-(trans-4-methylcyclohexanecarbonyl)amino]-5-(3,3-dimethylbut-1-ynyl)thiophene-2-carboxylic acid] | > 100 µM | – | < 0.1 µM
CC[C@H](C(=O)N1CCOCC1)N(c1cc(C#CC(C)(C)C)sc1C(=O)O)C(=O)[C@H]1CC[C@H](C)CC1 [Compound 122, 5-(3,3-dimethylbut-1-ynyl)-3-[(trans-4-methylcyclohexanecarbonyl)-[(1R)-1-(morpholine-4-carbonyl)propyl]amino]thiophene-2-carboxylic acid] | > 100 µM | < 0.1 µM | –
CC(C)[C@@H](C(=O)N1CCOCC1)N(c1cc(C#CC(C)(C)C)sc1C(=O)O)C(=O)[C@H]1CC[C@H](C)CC1 [Compound 85, 5-(3,3-Dimethylbut-1-ynyl)-3-[(trans-4-methylcyclohexanecarbonyl)-[(1S)-2-methyl-1-(morpholine-4-carbonyl)propyl]amino]thiophene-2-carboxylic acid] | 10 to 100 µM | – | < 0.1 µM
COC1CCN(C(=O)CN(c2cc(C#CC(C)(C)C)sc2C(=O)O)C(=O)[C@H]2CC[C@H](C)CC2)CC1 [Compound 44] | > 100 µM | – | < 0.1 µM
CC(C)(C)C#Cc1cc(N(CC(=O)N2CCCCC2)C(=O)[C@H]2CC[C@H](C)CC2)c(C(=O)O)s1 [Compound 46] | > 100 µM | – | < 0.1 µM
CNC(=O)CN(C(=O)C1CCC(C)CC1)c1cc(C#CC(C)C)sc1C(=O)O (centres unmarked) [Compound 70] | > 100 µM | – | < 0.1 µM
COC1CCCN(C(=O)[C@H](C)N(c2cc(C#CC(C)(C)C)sc2C(=O)O)C(=O)[C@H]2CC[C@H](C)CC2)C1 (stereo partly drawn) [Compound 40, 5-(3,3-Dimethylbut-1-ynyl)-3-[[(1S)-2-(3-methoxy-1-piperidyl)-1-methyl-2-oxo-ethyl]-(trans-4-methylcyclohexanecarbonyl)amino]thiophene-2-carboxylic acid] | > 100 µM | – | < 0.1 µM
C[C@@H](C(=O)N(C)C1CCOCC1)N(c1cc(C#CC(C)(C)C)sc1C(=O)O)C(=O)[C@H]1CC[C@H](C)CC1 [Compound 51, 5-(3,3-Dimethylbut-1-ynyl)-3-[(trans-4-methylcyclohexanecarbonyl)-[(1S)-1-methyl-2-[methyl(tetrahydropyran-4-yl)amino]-2-oxo-ethyl]amino]thiophene-2-carboxylic acid] | > 100 µM | – | < 0.1 µM
CN(C)CCN1CCCC[C@H](N(c2cc(C#CC(C)(C)C)sc2C(=O)O)C(=O)[C@H]2CC[C@H](C)CC2)C1=O [Compound 145, (S)-5-(3,3-Dimethylbut-1-ynyl)-3-((trans)-4-methyl-N-(1-(2-dimethylaminoethyl)-2-oxoazepan-3-yl)cyclohexanecarboxamido)thiophene-2-carboxylic acid] | 10 to 100 µM | < 0.1 µM | –
CC(CN(c1cc(C#CC(C)(C)C)sc1C(=O)O)C(=O)[C@H]1CC[C@H](C)CC1)C(=O)N1CCOCC1 (relative stereo) [Compound 104, 5-(3,3-Dimethylbut-1-ynyl)-3-[(trans-4-methylcyclohexanecarbonyl)-(2-methyl-3-morpholino-3-oxo-propyl)amino]thiophene-2-carboxylic acid] | > 100 µM | – | < 0.1 µM
CC[C@@H](C(=O)N(C)C)N(c1cc(C#CC(C)C)sc1C(=O)O)C(=O)[C@H]1CC[C@H](C)CC1 [Compound 89, 3-[[(1S)-1-(dimethylcarbamoyl)propyl]-(trans-4-methylcyclohexanecarbonyl)amino]-5-(3-methylbut-1-ynyl)thiophene-2-carboxylic acid] | > 100 µM | – | < 0.1 µM
CC1CCC(C(=O)N(CCC(=O)N2CCOCC2)c2cc(C#CC(C)(C)C)sc2C(=O)O)CC1 (centres unmarked) [Compound 97] | > 100 µM | – | < 0.1 µM
